Activity calls are given as the source filed them. The rule behind the calls is not given here.
Test system: rodent carcinogenicity bioassays, tumor incidence
Test: CCRIS carcinogenicity studies
Summary of the method: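 NCI-built, expert-reviewed records of carcinogenicity and related test outcomes (mutagenicity, tumor promotion/inhibition) compiled from published and report sources, historical span 1985-2011, not updated.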

CCN(CC)N=O
carcinogen call (Species: MOUSE, Strain/Sex: B6C3F1/MALE, Route: INTRAPERITONEAL, Dose: 0, 12 UG ON DAYS 0, 3, 9 AND 15 (STUDY DURATION: 132 WK), Tumor Site: Type of Lesion: LIVER: TUMORS): active; positive | carcinogen call (Species: MOUSE, Strain/Sex: B6C3F2 (BRACHYMORPHIC)/MALE, Route: INTRAPERITONEAL, Dose: 0, 0.02, 0.07 UMOL/G BW IN 10 µL/G BW TRIOCTANOIN ONCE AT 12 D OF AGE (STUDY DURATION: 9 MO), Dose: 0, 0.02, 0.07 UMOL/G BW IN 10 µL/G BW TRIOCTANOIN ONCE AT 12 D OF AGE (STUDY DURATION: 9 MO), Tumor Site: Type of Lesion: LIVER: HEPATOMA): active; positive | carcinogen call (Species: MOUSE, Strain/Sex: BALB/C/FEMALE, Route: INTRAPERITONEAL, Dose: 0, 15, 90 MG/KG ONCE (STUDY DURATION: 18 MONTHS), Dose: 0, 15, 90 MG/KG ONCE (STUDY DURATION: 18 MONTHS), Tumor Site: Type of Lesion: LUNG: TUMOR): active; positive | carcinogen call (Species: MOUSE, Strain/Sex: C3AF1/FEMALE, Route: INTRAPERITONEAL, Dose: 0, 1.5, 3 UG IN 0.01 ML TRIOCTANOIN/G BW INITIAL DOSE GIVEN ON DAY 1 OF AGE AND 3 SUBSEQUENT DOSES GIVEN 3, 9 AND 15 DAY, Dose: 0, 1.5, 3 UG IN 0.01 ML TRIOCTANOIN/G BW INITIAL DOSE GIVEN ON DAY 1 OF AGE AND 3 SUBSEQUENT DOSES GIVEN 3, 9 AND 15 DAY, Tumor Site: Type of Lesion: LIVER: ADENOMA, CARCINOMA, LUNG: TUMORS): active; positive | carcinogen call (Species: MOUSE, Strain/Sex: C3AF1/FEMALE, Route: INTRAPERITONEAL, Dose: 0, 1.5, 3 UG IN 0.01 ML TRIOCTANOIN/G BW INITIAL DOSE GIVEN ON DAY 15 OF AGE AND 3 SUBSEQUENT DOSES GIVEN 3, 9 AND 15 DA, Dose: 0, 1.5, 3 UG IN 0.01 ML TRIOCTANOIN/G BW INITIAL DOSE GIVEN ON DAY 15 OF AGE AND 3 SUBSEQUENT DOSES GIVEN 3, 9 AND 15 DA, Tumor Site: Type of Lesion: LIVER: ADENOMA, CARCINOMA, LUNG: TUMORS): active; positive | carcinogen call (Species: MOUSE, Strain/Sex: C3AF1/FEMALE, Route: INTRAPERITONEAL, Dose: 0, 1.5, 3 UG IN 0.01 ML TRIOCTANOIN/G BW INITIAL DOSE GIVEN ON DAY 42 OF AGE AND 3 SUBSEQUENT DOSES GIVEN 3, 9 AND 15 DA, Dose: 0, 1.5, 3 UG IN 0.01 ML TRIOCTANOIN/G BW INITIAL DOSE GIVEN ON DAY 42 OF AGE AND 3 SUBSEQUENT DOSES GIVEN 3, 9 AND 15 DA, Tumor Site: Type of Lesion: LUNG: TUMORS): active; positive | carcinogen call (Species: MOUSE, Strain/Sex: C3AF1/MALE, Route: INTRAPERITONEAL, Dose: 0, 1.5, 3 UG IN 0.01 ML TRIOCTANOIN/G BW INITIAL DOSE GIVEN ON DAY 1 OF AGE AND 3 SUBSEQUENT DOSES GIVEN 3, 9 AND 15 DAY, Dose: 0, 1.5, 3 UG IN 0.01 ML TRIOCTANOIN/G BW INITIAL DOSE GIVEN ON DAY 1 OF AGE AND 3 SUBSEQUENT DOSES GIVEN 3, 9 AND 15 DAY, Tumor Site: Type of Lesion: LIVER: ADENOMA, CARCINOMA, LUNG: TUMORS): active; positive | carcinogen call (Species: MOUSE, Strain/Sex: C3AF1/MALE, Route: INTRAPERITONEAL, Dose: 0, 1.5, 3 UG IN 0.01 ML TRIOCTANOIN/G BW INITIAL DOSE GIVEN ON DAY 15 OF AGE AND 3 SUBSEQUENT DOSES GIVEN 3, 9 AND 15 DA, Dose: 0, 1.5, 3 UG IN 0.01 ML TRIOCTANOIN/G BW INITIAL DOSE GIVEN ON DAY 15 OF AGE AND 3 SUBSEQUENT DOSES GIVEN 3, 9 AND 15 DA, Tumor Site: Type of Lesion: LIVER: ADENOMA, CARCINOMA, LUNG: TUMORS): active; positive | carcinogen call (Species: MOUSE, Strain/Sex: C3AF1/MALE, Route: INTRAPERITONEAL, Dose: 0, 1.5, 3 UG IN 0.01 ML TRIOCTANOIN/G BW INITIAL DOSE GIVEN ON DAY 42 OF AGE AND 3 SUBSEQUENT DOSES GIVEN 3, 9 AND 15 DA, Dose: 0, 1.5, 3 UG IN 0.01 ML TRIOCTANOIN/G BW INITIAL DOSE GIVEN ON DAY 42 OF AGE AND 3 SUBSEQUENT DOSES GIVEN 3, 9 AND 15 DA, Tumor Site: Type of Lesion: LIVER: ADENOMA, CARCINOMA, LUNG: TUMORS): active; positive | carcinogen call (Species: MOUSE, Strain/Sex: C3H/FEMALE, Route: TRANSPLACENTAL, Dose: 0, 0.5 MMOL IN 0.9% STERILE SALINE (51 MG/KG) ON DAY 16 OF GESTATION (STUDY DURATION: LIFETIME)): inactive; negative | carcinogen call (Species: MOUSE, Strain/Sex: C3H/FEMALE, Route: TRANSPLACENTAL, Dose: 0, 0.5 MMOL IN 0.9% STERILE SALINE (51 MG/KG) ON DAY 19 OF GESTATION (STUDY DURATION: LIFETIME), Tumor Site: Type of Lesion: LIVER: CARCINOMA, LUNG: TUMOR): active; positive | carcinogen call (Species: MOUSE, Strain/Sex: C3H/MALE, Route: INTRAPERITONEAL, Dose: 0, 12 UG ON DAYS 0, 3, 9 AND 15 (STUDY DURATION: 132 WK), Tumor Site: Type of Lesion: LIVER: TUMORS): active; positive | carcinogen call (Species: MOUSE, Strain/Sex: C3H/MALE, Route: TRANSPLACENTAL, Dose: 0, 0.5 MMOL IN 0.9% STERILE SALINE (51 MG/KG) ON DAY 16 OF GESTATION (STUDY DURATION: LIFETIME)): inactive; negative | carcinogen call (Species: MOUSE, Strain/Sex: C3H/MALE, Route: TRANSPLACENTAL, Dose: 0, 0.5 MMOL IN 0.9% STERILE SALINE (51 MG/KG) ON DAY 19 OF GESTATION (STUDY DURATION: LIFETIME), Tumor Site: Type of Lesion: LIVER: CARCINOMA, LUNG: CARCINOMA): active; positive | carcinogen call (Species: MOUSE, Strain/Sex: C57BL/6J/FEMALE, Route: INTRAPERITONEAL, Dose: 0, 15, 90 MG/KG ONCE (STUDY DURATION: 18 MONTHS), Dose: 0, 15, 90 MG/KG ONCE (STUDY DURATION: 18 MONTHS), Tumor Site: Type of Lesion: LUNG: TUMOR): active; positive | carcinogen call (Species: MOUSE, Strain/Sex: C57BL/MALE, Route: INTRAPERITONEAL, Dose: 0, 12 UG ON DAYS 0, 3, 9 AND 15 (STUDY DURATION: 132 WK)): inactive; negative | carcinogen call (Species: MOUSE, Strain/Sex: EU-PIM-1/FEMALE, Route: GAVAGE, Dose: 0, 1, 3 MG/KG 1/D FOR 38 WK (STUDY DURATION: 38 WK), Dose: 0, 1, 3 MG/KG 1/D FOR 38 WK (STUDY DURATION: 38 WK), Tumor Site: Type of Lesion: LIVER: HEMANGIOSARCOMA, LYMPHATIC SYSTEM: LYMPHOMA): active; positive | carcinogen call (Species: MOUSE, Strain/Sex: EU-PIM-1/MALE, Route: GAVAGE, Dose: 0, 1, 3 MG/KG 1/D FOR 38 WK (STUDY DURATION: 38 WK), Dose: 0, 1, 3 MG/KG 1/D FOR 38 WK (STUDY DURATION: 38 WK), Tumor Site: Type of Lesion: LIVER: HEMANGIOSARCOMA): active; positive | carcinogen call (Species: MOUSE, Strain/Sex: SWISS/MALE, Route: INTRAGASTRIC, Dose: 0, 80, 40 MG/KG IN NORMAL SALINE ADMINISTERED WITH A 4 WK GAP BETWEEN EACH DOSE, (STUDY DURATION: 24 WK), Dose: 0, 80, 40 MG/KG IN NORMAL SALINE ADMINISTERED WITH A 4 WK GAP BETWEEN EACH DOSE, (STUDY DURATION: 24 WK), Tumor Site: Type of Lesion: LUNG: TUMOR): active; positive | carcinogen call (Species: MOUSE, Strain/Sex: SWR/FEMALE, Route: INTRAPERITONEAL, Dose: 0, 15, 90 MG/KG ONCE (STUDY DURATION: 18 MONTHS), Dose: 0, 15, 90 MG/KG ONCE (STUDY DURATION: 18 MONTHS), Tumor Site: Type of Lesion: LUNG: TUMOR): active; positive | carcinogen call (Species: RABBIT, Route: ORAL, Tumor Site: Type of Lesion: LIVER): active; positive | carcinogen call (Species: RAT, Route: INTRAPERITONEAL, RECTAL, Tumor Site: Type of Lesion: LIVER): active; positive | carcinogen call (Species: RAT, Route: INTRAVENOUS, Tumor Site: Type of Lesion: KIDNEY): active; positive | carcinogen call (Species: RAT, Route: ORAL, Tumor Site: Type of Lesion: LIVER, ESOPHAGUS, KIDNEY, NASAL CAVITY, Tumor Site: Type of Lesion: LIVER, ESOPHAGUS, KIDNEY, NASAL CAVITY): active; positive | carcinogen call (Species: RAT, Strain/Sex: F344/FEMALE, Route: INTRAVESICULAR, Dose: 0, 2.5 MG IN 0.2 ML ETHANOL: DEIONIZED WATER (1:3) 2/WK FOR 25 WK (TOTAL DOSE 1.2 MMOL) (STUDY DURATION: LIFESPAN), Tumor Site: Type of Lesion: LIVER: HEMANGIOSARCOMA, ESOPHAGUS: TUMOR): active; positive | carcinogen call (Species: RAT, Strain/Sex: F344/FEMALE, Route: ORAL, Dose: 0, 18 MG/L IN DEIONIZED DRINKING WATER DURING WK 1, 5, AND 9 (STUDY DURATION: 121 WK), Tumor Site: Type of Lesion: HEMATOPOIETIC SYSTEM: LEUKEMIA): active; positive | carcinogen call (Species: RAT, Strain/Sex: WISTAR/MALE, Route: ORAL, Dose: 0, 0.033, 0.066, 0.132, 0.264, 0.528, 1.056, 1.584, 2.112, 2.640, 3.168, 4.224, 5.280, 6.336, 8.448, 16.896 PPM IN DRINK, Dose: 0, 0.033, 0.066, 0.132, 0.264, 0.528, 1.056, 1.584, 2.112, 2.640, 3.168, 4.224, 5.280, 6.336, 8.448, 16.896 PPM IN DRINK, Tumor Site: Type of Lesion: ESOPHAGUS: TUMOR, LIVER HEPATOCELLULAR CARCINOMA): active; positive
